Values of other authors, collected in patent US11440912B2, “Process for the preparation of ribociclib and its salts” (FRESENIUS KABI ONCOLOGY LIMITED, priority 2017, dated 2022).

Details: at 80% RH

ribociclib succinate converts to hydrated form from the non-hydrated form: 0.52%
Compound: CN(C)C(=O)c1cc2cnc(Nc3ccc(N4CCNCC4)cn3)nc2n1C1CCCC1.O=C(O)CCC(=O)O [ribociclib succinate]
